Laboratory results reported in paper PMC11568388 (Molecular Biology and Evolution, 2024).

System: Aplysia californica
Type: in vivo

| Structure (SMILES) | Behavior vs saline-injected control (in vivo) | Behavioral phenotype (in vivo) | Onset of behavioral phenotype after injection (in vivo) [min] | Locomotion (n = 3) |
| --- | --- | --- | --- | --- |
| NCC(O)c1ccc(O)cc1 (stereo not shown) [octopamine] | did not alter A. californica behavior significantly different from control | – | – | – |
| NCCc1c[nH]c2ccc(O)cc12 [serotonin] | – | notable inability of the animal's foot to completely stick to the tank wall, resulting in impaired locomotion | ≤ 1 | immediate hyperlocomotive phenotype |
